As usually defined, the pIC50 is the negative decadic logarithm of the IC50, by convention in mol/L. A high value points to a low IC50. The pKd is −log10 of the Kd, conventionally taken in molar units.

We go through 14 molecules from EP3057951B1, “METHYLENE LINKED QUINOLINYL MODULATORS OF ROR-GAMMA-T” (Janssen Pharmaceutica NV, priority 2013, dated 2015).

pIC50, pKd: −log10 of the molar value. Values joined by “and” are separate entries in the source; they are usually repeats but may differ in a detail not shown here. Identical values can stand only once.

The target in assay [1] is T1, wild type human RORγt LBD (Homo sapiens, UniProt P51449).
T1 construct: expressed in transfected cells; host or cells: HEK293T
T1 sequence (P51449 258-518): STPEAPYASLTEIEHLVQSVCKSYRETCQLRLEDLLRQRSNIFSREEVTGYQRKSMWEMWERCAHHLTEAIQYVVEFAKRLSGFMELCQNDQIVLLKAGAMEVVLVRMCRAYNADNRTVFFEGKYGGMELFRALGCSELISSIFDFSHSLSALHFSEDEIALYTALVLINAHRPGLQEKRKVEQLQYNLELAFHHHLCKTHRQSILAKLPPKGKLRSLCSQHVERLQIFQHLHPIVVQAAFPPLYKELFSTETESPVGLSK
The experiment in a line: RORγt (LBD) Reporter Assay (GAL4-luciferase, HEK293T cells). The class given is cell-based. As to conditions: HEK293T cells; for inhibition at 6 µM: HEK-293T, read-out: RORγt (LBD) Reporter Assay, % inhibition @ 6 µM, 6 µM compound concentration; for RORγt (LBD) Reporter Assay, % inhibition @ 6 µM: 6 µM compound concentration. For orientation: A reporter such as luciferase makes a cellular process visible.

In assay [2] the target is T2, wild type human RORγt ligand binding domain (RORyt LBD) (Homo sapiens, UniProt P51449).
T2 construct: His-tag (N); TurboTEV protease cleavage site (ENLYFQG) (N); made in house; host or cells: E. coli (pHIS1, modified pET vector)
T2 sequence (P51449 258-518): T1 sequence (P51449 258-518)
The experiment in a line: RORγt ThermoFluor assay (thermal shift, binding affinity KD). For orientation: DSF heats the sample and reads unfolding from a dye or from intrinsic fluorescence.

For the molecule `Cn1cncc1C(O)(c1ccc(C(F)(F)F)nc1)c1ccc2nc(N3CC(F)(F)C3)c(Cc3ccc(-n4cccn4)cc3)c(Cl)c2c1` (single isomer, unassigned) [Example 135b, {4-Chloro-2-(3,3-difluoroazetidin-1-yl)-3-[4-(1H-pyrazol-1-yl)benzyl]quinolin-6-yl}(1-methyl-1H-imidazol-5-yl)[6-(trifluoromethyl)pyridin-3-yl]methanol], in assay [1], the negative logarithm of the IC50 (pIC50) was 6.59 and the inhibition at 6 µM came out at 99%. In addition, in assay [2], the pKd is 6.80.

Turning to `Cn1cncc1C(O)(c1ccc(C(F)(F)F)nc1)c1ccc2nc(N3CC(F)(F)C3)c(Cc3ccc(-n4cccn4)cc3)c(Cl)c2c1` (single isomer, unassigned) [Example 135c, {4-Chloro-2-(3,3-difluoroazetidin-1-yl)-3-[4-(1H-pyrazol-1-yl)benzyl]quinolin-6-yl}(1-methyl-1H-imidazol-5-yl)[6-(trifluoromethyl)pyridin-3-yl]methanol], in assay [1], the “RORγt (LBD) Reporter Assay, % inhibition @ 6 µM” value (shortened to “RORγt … % inhibition @ 6 µM”) is on record as 95% and the pIC50 was 7.11. The pKd in assay [2] is 7.64.

On to `Cc1cc(C(O)(c2ccc(Cl)cc2)c2cncn2C)cc2c(Cl)c(Cc3ccc(-n4cccn4)cc3)c(N3CCC3)nc12` (single isomer, unassigned) [Example 136b, {2-Azetidin-1-yl-4-chloro-8-methyl-3-[4-(1H-pyrazol-1-yl)benzyl]quinolin-6-yl}(4-chlorophenyl)(1-methyl-1H-imidazol-5-yl)methanol], for which, in assay [1], the negative logarithm of the IC50 (pIC50) was 6.00 and the inhibition at 6 µM worked out at 83%. Besides, in assay [2], the pKd is 5.64.

On to `Cc1cc(C(O)(c2ccc(Cl)cc2)c2cncn2C)cc2c(Cl)c(Cc3ccc(-n4cccn4)cc3)c(N3CCC3)nc12` (single isomer, unassigned) [Example 136c, {2-Azetidin-1-yl-4-chloro-8-methyl-3-[4-(1H-pyrazol-1-yl)benzyl]quinolin-6-yl}(4-chlorophenyl)(1-methyl-1H-imidazol-5-yl)methanol], for which, in assay [1], the “RORγt … % inhibition @ 6 µM” value worked out at 97% and the pIC50 was 6.85. The pKd in assay [2] is 7.72.

Turning to `Cc1cc(C(O)(c2ccc(C(F)(F)F)nc2)c2cncn2C)cc2c(Cl)c(Cc3ccc(-n4cccn4)cc3)c(N3CCC3)nc12` (single isomer, unassigned) [Example 137b, {2-Azetidin-1-yl-4-chloro-8-methyl-3-[4-(1H-pyrazol-1-yl)benzyl]quinolin-6-yl}(1-methyl-1H-imidazol-5-yl)[6-(trifluoromethyl)pyridin-3-yl]methanol], in assay [1], the pIC50 is 6.80 and the inhibition at 6 µM was determined as 93%. For the same molecule, the pKd in assay [2] was 7.39.

As to `Cc1cc(C(O)(c2ccc(C(F)(F)F)nc2)c2cncn2C)cc2c(Cl)c(Cc3ccc(-n4cccn4)cc3)c(N3CCC3)nc12` (single isomer, unassigned) [Example 137c, {2-Azetidin-1-yl-4-chloro-8-methyl-3-[4-(1H-pyrazol-1-yl)benzyl]quinolin-6-yl}(1-methyl-1H-imidazol-5-yl)[6-(trifluoromethyl)pyridin-3-yl]methanol], in assay [1], the “RORγt … % inhibition @ 6 µM” value was 94% and the pIC50 was 6.85. The pKd in assay [2] is 8.35.

For the molecule `Cn1cncc1C(O)(c1ccc(Cl)cc1)c1ccc2nc(N3CCC3)c(Cc3ccc(-n4cccn4)cc3)c(Cl)c2c1` (single isomer, unassigned) [Example 138b, {2-Azetidin-1-yl-4-chloro-3-[4-(1H-pyrazol-1-yl)benzyl]quinolin-6-yl}(4-chlorophenyl)(1-methyl-1H-imidazol-5-yl)methanol], in assay [1], the pIC50 is 6.25 and the inhibition at 6 µM was found to be 101%. Besides, the pKd in assay [2] is 5.89.

For `Cn1cncc1C(O)(c1ccc(Cl)cc1)c1ccc2nc(N3CCC3)c(Cc3ccc(-n4cccn4)cc3)c(Cl)c2c1` (single isomer, unassigned) [Example 138c, {2-Azetidin-1-yl-4-chloro-3-[4-(1H-pyrazol-1-yl)benzyl]quinolin-6-yl}(4-chlorophenyl)(1-methyl-1H-imidazol-5-yl)methanol], in assay [1], the “RORγt … % inhibition @ 6 µM” value is recorded as 96% and the pIC50 is 7.12. The pKd in assay [2] was 7.49.

Turning to `Cc1ccc(C(O)(c2ccc3nc(N4CCC4)c(Cc4ccc(C(F)(F)F)cc4)c(Cl)c3c2)c2cnnn2C)c(C)n1` (single isomer, unassigned) [Example 140b, {2-Azetidin-1-yl-4-chloro-3-[4-(trifluoromethyl)benzyl]quinolin-6-yl}(2,6-dimethylpyridin-3-yl)(1-methyl-1H-1,2,3-triazol-5-yl)methanol], in assay [1], the pIC50 is roughly 7.00 and the inhibition at 6 µM is 101%. Moreover, the pKd in assay [2] was 6.89.

Turning to `Cc1ccc(C(O)(c2ccc3nc(N4CCC4)c(Cc4ccc(C(F)(F)F)cc4)c(Cl)c3c2)c2cnnn2C)c(C)n1` (single isomer, unassigned) [Example 140c, {2-Azetidin-1-yl-4-chloro-3-[4-(trifluoromethyl)benzyl]quinolin-6-yl}(2,6-dimethylpyridin-3-yl)(1-methyl-1H-1,2,3-triazol-5-yl)methanol], in assay [1], the “RORγt … % inhibition @ 6 µM” value turned out to be 99%; the pIC50 was 9.18 and ~9.00. Besides, in assay [2], the pKd was 9.82.

`Cc1ccc(C(O)(c2ccc3nc(N4CCC4)c(Cc4ccc(-n5cccn5)cc4)c(Cl)c3c2)c2cnnn2C)c(C)n1` (single isomer, unassigned) [Example 141b, {2-Azetidin-1-yl-4-chloro-3-[4-(1H-pyrazol-1-yl)benzyl]quinolin-6-yl}(2,6-dimethylpyridin-3-yl)(1-methyl-1H-1,2,3-triazol-5-yl)methanol]: in assay [1], the “RORγt … % inhibition @ 6 µM” value is reported as 20% and the pIC50 was less than 5.22. Moreover, the pKd in assay [2] is 4.77.

For the molecule `Cc1ccc(C(O)(c2ccc3nc(N4CCC4)c(Cc4ccc(-n5cccn5)cc4)c(Cl)c3c2)c2cnnn2C)c(C)n1` (single isomer, unassigned) [Example 141c, {2-Azetidin-1-yl-4-chloro-3-[4-(1H-pyrazol-1-yl)benzyl]quinolin-6-yl}(2,6-dimethylpyridin-3-yl)(1-methyl-1H-1,2,3-triazol-5-yl)methanol], in assay [1], the “RORγt … % inhibition @ 6 µM” value came out at 5% and the pIC50 is less than 5.22. In assay [2], the pKd was 5.15.

Take `Cc1ccc(C(O)(c2ccc3nc(NC4CC4)c(Cc4ccc(C(F)(F)F)cc4)c(Cl)c3c2)c2cnnn2C)c(C)n1` (single isomer, unassigned) [Example 143b, {4-Chloro-2-(cyclopropylamino)-3-[4-(trifluoromethyl)benzyl]quinolin-6-yl}(2,6-dimethylpyridin-3-yl)(1-methyl-1H-1,2,3-triazol-5-yl)methanol]: in assay [1], the pIC50 is 5.80 and the inhibition at 6 µM was 93%. Further, in assay [2], the pKd was 5.77.

Consider `Cc1ccc(C(O)(c2ccc3nc(NC4CC4)c(Cc4ccc(C(F)(F)F)cc4)c(Cl)c3c2)c2cnnn2C)c(C)n1` (single isomer, unassigned) [Example 143c, {4-Chloro-2-(cyclopropylamino)-3-[4-(trifluoromethyl)benzyl]quinolin-6-yl}(2,6-dimethylpyridin-3-yl)(1-methyl-1H-1,2,3-triazol-5-yl)methanol], for which, in assay [1], the “RORγt … % inhibition @ 6 µM” value worked out at 102% and the pIC50 was roughly 8.00. For the same molecule, the pKd in assay [2] is 8.66.
